Assay [1] concerns the target T1, Sentrin-specific protease 8 (Homo sapiens, UniProt Q96LD8).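 Note: luminescence read-out of SENP8 inhibition, dose-response confirmation following an ultra-high-throughput screen.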
T1 sequence (Q96LD8 whole entry): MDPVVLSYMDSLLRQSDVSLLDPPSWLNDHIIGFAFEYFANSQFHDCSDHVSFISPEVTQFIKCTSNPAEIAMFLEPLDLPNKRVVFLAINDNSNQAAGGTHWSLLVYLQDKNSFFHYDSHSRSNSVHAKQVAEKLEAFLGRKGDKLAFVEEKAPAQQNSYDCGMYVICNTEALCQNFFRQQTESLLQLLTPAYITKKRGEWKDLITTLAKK
The format is functional.

For assay [2], the target named is T2, Sentrin-specific protease 6 (Homo sapiens, UniProt Q9GZR1).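 Note: Luminescence-based dose-response confirmatory assay of SENP6 inhibition, following up an ultra-high-throughput screen.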
T2 sequence (Q9GZR1 whole entry): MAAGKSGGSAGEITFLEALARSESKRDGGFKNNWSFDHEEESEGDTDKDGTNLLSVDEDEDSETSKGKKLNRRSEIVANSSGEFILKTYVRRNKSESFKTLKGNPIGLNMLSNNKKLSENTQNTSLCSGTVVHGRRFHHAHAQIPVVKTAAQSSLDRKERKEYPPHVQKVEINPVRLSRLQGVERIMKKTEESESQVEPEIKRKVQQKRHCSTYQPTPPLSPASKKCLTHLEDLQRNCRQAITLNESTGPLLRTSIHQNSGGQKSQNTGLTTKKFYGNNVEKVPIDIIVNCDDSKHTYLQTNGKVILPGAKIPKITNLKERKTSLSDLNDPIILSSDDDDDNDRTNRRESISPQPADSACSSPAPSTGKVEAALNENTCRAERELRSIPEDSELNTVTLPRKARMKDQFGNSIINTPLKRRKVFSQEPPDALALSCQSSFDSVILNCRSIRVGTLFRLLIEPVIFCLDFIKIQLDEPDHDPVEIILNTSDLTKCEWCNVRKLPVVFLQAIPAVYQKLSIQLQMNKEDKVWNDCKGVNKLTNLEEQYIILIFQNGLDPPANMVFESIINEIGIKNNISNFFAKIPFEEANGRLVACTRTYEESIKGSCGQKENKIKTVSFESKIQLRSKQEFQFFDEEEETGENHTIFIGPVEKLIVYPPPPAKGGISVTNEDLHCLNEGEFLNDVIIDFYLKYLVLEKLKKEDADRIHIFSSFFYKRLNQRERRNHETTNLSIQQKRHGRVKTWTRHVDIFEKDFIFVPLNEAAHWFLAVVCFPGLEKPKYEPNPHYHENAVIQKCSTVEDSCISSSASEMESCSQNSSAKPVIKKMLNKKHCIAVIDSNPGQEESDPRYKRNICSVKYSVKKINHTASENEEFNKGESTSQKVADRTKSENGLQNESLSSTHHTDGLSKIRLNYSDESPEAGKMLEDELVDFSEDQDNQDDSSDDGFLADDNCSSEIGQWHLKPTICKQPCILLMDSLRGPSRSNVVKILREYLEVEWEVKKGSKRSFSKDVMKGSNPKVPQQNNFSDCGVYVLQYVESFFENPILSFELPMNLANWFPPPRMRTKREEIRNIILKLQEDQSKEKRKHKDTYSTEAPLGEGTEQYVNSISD
It counts as functional.

Another assay addresses T3, Caspase-3 (Homo sapiens, UniProt P42574).
T3 sequence (P42574 whole entry): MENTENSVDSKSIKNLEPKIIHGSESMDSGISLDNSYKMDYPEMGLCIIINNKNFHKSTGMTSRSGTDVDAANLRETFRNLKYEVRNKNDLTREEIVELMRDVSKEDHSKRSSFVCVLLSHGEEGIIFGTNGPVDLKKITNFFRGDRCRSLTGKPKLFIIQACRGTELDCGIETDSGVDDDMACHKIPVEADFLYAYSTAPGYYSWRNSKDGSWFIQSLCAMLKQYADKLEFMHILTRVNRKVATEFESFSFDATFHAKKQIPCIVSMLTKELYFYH
The format is functional.

In assay [3] the target is T4, Sentrin-specific protease 7 (Homo sapiens, UniProt Q9BQF6).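 Note: Luminescence-based dose-response confirmation of ultra-high-throughput screening hits, measuring inhibition of SENP7.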
T4 sequence (Q9BQF6 whole entry): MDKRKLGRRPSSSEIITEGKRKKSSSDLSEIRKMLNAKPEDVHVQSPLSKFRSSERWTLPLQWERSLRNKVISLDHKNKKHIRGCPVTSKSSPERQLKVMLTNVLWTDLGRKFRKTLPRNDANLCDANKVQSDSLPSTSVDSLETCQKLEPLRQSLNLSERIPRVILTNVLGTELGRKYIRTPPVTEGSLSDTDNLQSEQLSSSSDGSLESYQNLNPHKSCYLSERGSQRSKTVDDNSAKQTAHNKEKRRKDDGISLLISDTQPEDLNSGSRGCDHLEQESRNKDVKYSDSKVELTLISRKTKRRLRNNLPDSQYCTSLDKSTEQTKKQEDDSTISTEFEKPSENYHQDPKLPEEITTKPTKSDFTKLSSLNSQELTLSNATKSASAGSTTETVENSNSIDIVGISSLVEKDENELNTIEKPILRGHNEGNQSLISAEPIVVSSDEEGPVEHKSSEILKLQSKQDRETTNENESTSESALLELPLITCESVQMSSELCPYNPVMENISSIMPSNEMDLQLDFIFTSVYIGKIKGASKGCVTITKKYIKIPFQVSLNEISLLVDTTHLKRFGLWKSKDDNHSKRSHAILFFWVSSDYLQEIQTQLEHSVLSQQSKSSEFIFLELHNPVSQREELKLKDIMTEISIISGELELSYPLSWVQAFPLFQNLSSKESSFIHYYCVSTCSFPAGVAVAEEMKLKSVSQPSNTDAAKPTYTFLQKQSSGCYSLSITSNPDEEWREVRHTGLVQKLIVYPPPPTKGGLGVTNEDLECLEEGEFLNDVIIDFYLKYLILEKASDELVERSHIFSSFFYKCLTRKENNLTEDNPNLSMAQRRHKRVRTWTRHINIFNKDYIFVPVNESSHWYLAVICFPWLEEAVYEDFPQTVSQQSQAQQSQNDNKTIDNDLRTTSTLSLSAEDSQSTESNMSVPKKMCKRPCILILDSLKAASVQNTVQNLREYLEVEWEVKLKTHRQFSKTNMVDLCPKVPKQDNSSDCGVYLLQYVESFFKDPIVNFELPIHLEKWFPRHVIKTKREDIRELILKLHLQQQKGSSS
It counts as functional.

The next assay concerns the target Nonstructural protein 1 (Influenza A virus, UniProt Q194T2). It counts as functional, Influenza A virus (A/California/07/2009(H1N1)).
Assay [4] is described as follows: inhibitors of intracellular T. cruzi replication, confirmation, NIH3T3 host cells, beta-gal luminescence (AID 2044).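 Note: intracellular parasites grown in NIH/3T3 mouse fibroblasts as host cells; luminescent beta-galactosidase reporter signal from transgenic T. cruzi replicating inside host cells; inhibitors lower the luminescence signal.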 It counts as functional, cell-based.
The nature of assay [5]: cytotoxicity toward NIH3T3 fibroblasts, dose response, counter-screen, cell-based, ATP luminescence, mouse fibroblasts (AID 2010).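 Note: cells exposed to compound for about 90 hours before reading.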 It counts as functional.
Another assay has as its target T5, Estrogen receptor (Homo sapiens, UniProt P03372).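 Note: potency for inhibiting coactivator peptide recruitment to the receptor.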
T5 sequence (P03372 whole entry): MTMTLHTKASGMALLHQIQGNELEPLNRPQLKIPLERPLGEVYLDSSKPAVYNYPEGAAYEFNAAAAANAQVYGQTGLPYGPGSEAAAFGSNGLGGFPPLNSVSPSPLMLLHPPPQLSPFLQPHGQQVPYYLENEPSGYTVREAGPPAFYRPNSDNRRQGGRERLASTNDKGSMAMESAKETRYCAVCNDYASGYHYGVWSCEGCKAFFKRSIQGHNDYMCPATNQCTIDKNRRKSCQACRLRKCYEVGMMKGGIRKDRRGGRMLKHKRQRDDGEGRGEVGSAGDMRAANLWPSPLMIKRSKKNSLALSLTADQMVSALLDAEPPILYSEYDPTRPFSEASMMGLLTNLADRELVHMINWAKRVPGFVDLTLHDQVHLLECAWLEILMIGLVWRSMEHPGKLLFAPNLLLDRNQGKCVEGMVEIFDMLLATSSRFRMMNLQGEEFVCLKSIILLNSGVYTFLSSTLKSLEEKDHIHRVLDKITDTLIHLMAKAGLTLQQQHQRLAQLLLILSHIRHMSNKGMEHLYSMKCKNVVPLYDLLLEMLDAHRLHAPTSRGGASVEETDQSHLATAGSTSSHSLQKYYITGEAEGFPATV

The nature of assay [6]: Luminescence Cell-Based Dose Response HTS to Identify Activators of Luciferase Translation or Activity in H4 […] Cells. [Related pubchem assays: 1829 (Project Summary), 1814 (Primary HTS)]. It counts as functional.
The next assay concerns H4. Nature of the assay: Luminescence Cell-Based Dose Response HTS to Identify Activators of 5'UTR Stem-Loop Driven Prion Protein mRNA Translation in H4 Neuroglioblastoma Cells. [Related pubchem assays: 1829 (Project Summary), 1814 (Primary HTS)]. It counts as functional. As to conditions: Homo sapiens.
A short description of assay [7]: Luminescence Cell-Based Dose Confirmation HTS to Identify Activators of 5'UTR Stem-Loop Driven Alpha-Synuclein mRNA Translation in H4 Neuroglioblastoma Cells. [Related pubchem assays: 1829 (Project Summary), 1814 (Primary HTS)]. The format is functional.
Assay [8] can be described thus: Luminescence Cell-Based Dose Retest to Confirm Inhibitors of Cancer Stem Cells. [Related pubchem assays (depositor defined):AID2717, AID2721]. As to conditions: Homo sapiens. It counts as functional.
The test system of assay [9] is HEK293. Nature of the assay: cells. The format is functional, cell-based. As to conditions: Homo sapiens.
Assay [10] relates to HEK293. Nature of the assay: cells. The format is functional, cell-based. As to conditions: Homo sapiens. The source holds these as a separate data set.
Assay [11] has as its system HEK293. Nature of the assay: NOD2 signaling inhibitors in MDP-stimulated cells, cell-based, uHTS, luminescence (AID 2001). The format is functional. As to conditions: Homo sapiens.
The subject of assay [12] is HEK293. Description: NOD1 signaling inhibitors, primary screen, cell-based, luminescence, uHTS (AID 1578). The format is functional. Conditions: Homo sapiens.

Consider 13 compounds from ChEMBL document CHEMBL1201862, “PubChem BioAssay data set” (2004).

Active and inactive are the calls of the source.
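Throughout, for AC50: cells exposed to compound for roughly 70 hours or longer before luminescence read.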

Chain of Nonstructural protein 1 (Q194T2 whole entry): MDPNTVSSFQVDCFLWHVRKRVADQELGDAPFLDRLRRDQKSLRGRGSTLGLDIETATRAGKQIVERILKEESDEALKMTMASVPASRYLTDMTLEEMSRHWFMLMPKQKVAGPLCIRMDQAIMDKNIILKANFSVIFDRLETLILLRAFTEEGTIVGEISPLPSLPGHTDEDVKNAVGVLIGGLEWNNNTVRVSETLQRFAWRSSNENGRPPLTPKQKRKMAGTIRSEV

With `CCc1ccc(-c2csc(NC(=O)C3=COCCO3)n2)cc1`, the IC50 in [1] was 48.5 µM (active); in assay [2] it was 27 µM (active); at Caspase-3 it was 38.6 µM (active); in assay [3], 6.81 µM (active).

Regarding `O=C(Nc1ccccc1Cl)Nc1cccc2cccnc12`, the 50% inhibitory concentration (IC50) in assay [1] is 6.08 µM (active); in assay [2] it was > 100 µM (inactive); at Caspase-3 it was 29.4 µM (active); in assay [3], 7.41 µM (active).

On to `CC1CCN(c2c([N+](=O)[O-])nn(-c3ccc4c(c3)OCCO4)[n+]2[O-])CC1`, for which the IC50 at Nonstructural protein 1 was 58.9 µM (active). Further, the EC50 in assay [4] is 0.431 µM (active); in [5], > 60 µM (not active).

Consider `COc1ccccc1NC(=O)CSc1n[nH]c(-c2ccccn2)n1`, for which the IC50 at Nonstructural protein 1 was 6.84 µM (active).

With `O=[N+]([O-])c1nn(-c2ccc3c(c2)OCCO3)[n+]([O-])c1NCc1ccccc1Cl`, the IC50 was > 100 µM (inactive) in assay [1], > 100 µM (inactive) in assay [2], > 100 µM (inactive) at Caspase-3 and 3.36 µM (active) in [3].

For the compound `O=C(Cc1cccs1)Nc1nnc(COc2ccccc2)s1`, the half-maximal inhibitory concentration (IC50) against Estrogen receptor was 37.3 µM (not active).

Turning to `Clc1ccc(OCc2nc(-c3ccncc3)no2)c(Cl)c1`, the IC50 is 36.6 µM (active) in assay [1], 28.8 µM (active) in assay [2], 38.8 µM (active) at Caspase-3 and 9.12 µM (active) in assay [3].

As to `S=C(NNc1ccc2ccccc2c1)NC1CCCCC1`, the EC50 in assay [6] was 30.4 µM (active); in the assay on H4, 9.85 µM (active); in [7], 42.1 µM (active). Further, at Nonstructural protein 1, the half-maximal inhibitory concentration (IC50) is > 100 µM (active).

On to `CC(C)OC(=O)c1cc2c(ccn2C)n1CC(=O)N(Cc1ccccc1)c1ccc(F)cc1`, for which the IC50 at Nonstructural protein 1 was > 100 µM (active).

In the case of `Cc1cccc(C(=O)n2c(=S)nc3cc(C)ccn32)c1`, the IC50 is > 100 µM (inactive) in assay [1], 86.4 µM (active) in assay [2], 87.3 µM (active) on Caspase-3 and 11 µM (active) in assay [3].

With `O=C(CSc1nc2cc(Cl)ccc2s1)NC(=O)NCc1ccco1`, on Estrogen receptor, the half-inhibitory concentration (IC50) is listed as > 50 µM (not active).

For `COc1ccc(-c2nc3ccccc3c(=O)[nH]2)cc1`, the IC50 is > 100 µM (inactive) in [1], 17.3 µM (active) in assay [2], 6.83 µM (active) on Caspase-3 and 6.89 µM (active) in [3].

With `CC1(C)C=C2[C@H]3CC[C@@H]4[C@@]5(C)CCC(=O)C(C)(C)[C@@H]5CC[C@@]4(C)[C@]3(C)CC[C@@]2(C(=O)O)CC1` [MORONIC ACID], the half-maximal activity concentration (AC50) in assay [8] was 3.35 µM (active). Further, the half-maximal inhibitory concentration (IC50) with HEK293 [9] was 15.7 µM (active); with HEK293 [10], 10.9 µM (active); with HEK293 [11], 8.08 µM (active). In the assay with HEK293 [12], the EC50 is 2.27 µM (active).
